Measured values published in PMC7419507, “In vitro Cas9-assisted editing of modular polyketide synthase genes to produce desired natural product derivatives” (Nature Communications, 2020).
Where “and” joins values, the source holds several entries; their conditions need not be identical. Identical values can stand only once.

How the values were obtained:
Assay type in all cases: cell-based
[1] = test system: Jurkat, SKOV-3 and MESO-1 cells; assay: Cytotoxicity assay, statements for all tested cell lines together
Protocol: (§1) Jurkat cells were cultured in RPMI1640 medium supplemented with 10% foetal bovine serum, penicillin (50 U/ml), streptomycin (50 μg/ml), and Glutamax. SKOV-3 cells were cultured in DMEM medium supplemented with 10% fetal bovine serum, penicillin (50 U/ml), and streptomycin (50 μg/ml). MESO-1 cells were cultured in RPMI1640 medium supplemented with 10% fetal bovine serum, penicillin (50 U/ml), and streptomycin (50 μg/ml). All cell lines were seeded in a 384-well plate at a density of 1000 cells/well in 20 μl of media and incubated at 37 °C in a humidified incubator with 5% CO2. After 4 h, 2-fold dilution samples resolved in DMSO were added to the cell culture at the concentration of 0.5% (0.1 μl) and incubated for 72 h. Cell viabilities were measured using a CellTiter-Glo luminescent cell viability assay and EnVision multilabel plate reader.

[2] = test system: malignant pleural mesothelioma MESO-1 cells; assay: Cytotoxicity assay (CellTiter-Glo, 72 h), MESO-1; settings: raw replicate data
Protocol: as §1

FKBP12 and mTOR = target: T1, FKBP12 and mTOR (Homo sapiens, UniProt P42345+P62942); assay: Fluoppi analysis: induction of FKBP12-mTOR complex formation in transfected HeLa cells; settings: for Foci intensity: raw data, one replicate per line
T1 construct: host or cells: HeLa cells
T1 sequence (P42345 2025-2114 limits assumed): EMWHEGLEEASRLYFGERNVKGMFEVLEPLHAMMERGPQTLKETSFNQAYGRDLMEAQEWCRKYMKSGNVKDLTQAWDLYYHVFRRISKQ
T1 sequence (P62942 whole entry): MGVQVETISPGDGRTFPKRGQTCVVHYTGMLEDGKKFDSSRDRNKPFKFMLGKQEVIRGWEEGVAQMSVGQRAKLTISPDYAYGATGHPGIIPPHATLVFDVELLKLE
Protocol: Fluoppi harbours a tetrameric fluorescent protein hAG tag and an oligomeric assembly helper Ash tag to create detectable fluorescent foci in cells when there are interactions between two proteins fused to each tag[32].
HeLa cells were maintained in DMEM (Fujifilm Wako, Osaka, Japan) supplemented with 10% FBS (Thermo Fisher Scientific, MA, USA) and 1% of Penicillin-Streptomycin (Thermo Fisher Scientific) in a humidified incubator with 5% CO2 at 37 °C. Harvested cells were plated at 1 × 10^6 cells/well in 6-well plate and incubated for 6 h. Then each 1.25 µg of phAG-mTOR and pAsh-FKBP12 (Medical and Biological Laboratories Co., Ltd., Aichi, Japan) was co-transfected with Lipofectamine 2000 reagent (Thermo Fisher Scientific) overnight. Next day, transfected cells were harvested and seeded in 384-well optical-bottom microplate (PerkinElmer, MA, USA) at a density of 3000 cells/well. After the 24 h incubation at 37 °C, cells were treated with different concentrations of compounds for 1 h. Cells were then fixed with 4% paraformaldehyde and stained with 1 µg/ml of Hoechst33342 (Thermo Fisher Scientific). Cell images of 9 visual fields/well were acquired with ×20 objective lens in Opera Phenix High-Content Screening System (PerkinElmer) and analysed by Harmony4.9 software (PerkinElmer). Because protein-protein interactions are quantified by measuring the aggregation of fluorescent elements in foci, fluorescent intensity in foci was normalised by total fluorescent intensity in each cell. EC50 values were calculated using TIBCO Spotfire 10.3 software (PerkinElmer).

T lymphoma Jurkat cells = assay: Cytotoxicity assay (CellTiter-Glo, 72 h), Jurkat; settings: raw data (replicates)
Protocol: as §1

[3] = test system: human ovarian adenocarcinoma SKOV-3 cells; assay: Cytotoxicity assay (CellTiter-Glo, 72 h), SKOV-3; settings: raw replicate data
Protocol: as §1

Structure (SMILES): COc1cc([C@@H]2c3cc4c(cc3[C@@H](O[C@@H]3O[C@@H]5CO[C@@H](C)O[C@H]5[C@H](O)[C@H]3O)[C@H]3COC(=O)[C@H]23)OCO4)cc(OC)c1O [etoposide, reference compound]
- Effect on cell viability, in words ([1]; Jurkat, SKOV-3 and MESO-1 cells, 72 h): typical cytotoxic activities

Structure (SMILES): COC1CC2CCC(C)C(O)(O2)C(=O)C(=O)N2CCCCC2C(=O)OC(C(C)CC2CCC(O)C(OC)C2)CC=C(C)C(O)CC(=O)C(C)CC(C)C=CC=CC=C1C (stereo not drawn) [Compound 10]
- MESO1 viability (%) ([2]; conc 9.53674e-5 uM): 100.8% and 105.3% and 105.4%
- MESO1 viability (%) ([2]; conc 0.000190735 uM): 95.7% and 102.9% and 100.7%
- MESO1 viability (%) ([2]; conc 0.00038147 uM): 104.6% and 103.5% and 110.6%
- MESO1 viability (%) ([2]; conc 0.000762939 uM): 99.4% and 101.6% and 106.3%
- MESO1 viability (%) ([2]; conc 0.00152588 uM): 103.6% and 107.9% and 110.6%
- MESO1 viability (%) ([2]; conc 0.00305176 uM): 103.7% and 97.7% and 102.1%
- MESO1 viability (%) ([2]; conc 0.00610352 uM): 102.5% and 110.7% and 106.5%
- MESO1 viability (%) ([2]; conc 0.012207 uM): 100.1% and 112.2% and 102.4%
- MESO1 viability (%) ([2]; conc 0.0244141 uM): 100.1% and 101.2% and 104.6%
- MESO1 viability (%) ([2]; conc 0.0488281 uM): 99.1% and 97.8% and 101.7%
- MESO1 viability (%) ([2]; conc 0.0976562 uM): 102.3% and 104.8% and 99.5%
- MESO1 viability (%) ([2]; conc 0.195312 uM): 92.8% and 95.2% and 98.3%
- MESO1 viability (%) ([2]; conc 0.390625 uM): 100.3% and 99.6% and 94.3%
- MESO1 viability (%) ([2]; conc 0.78125 uM): 88.5% and 91.5% and 91.8%
- MESO1 viability (%) ([2]; conc 1.5625 uM): 91.5% and 95.3% and 90.6%
- MESO1 viability (%) ([2]; conc 3.125 uM): 85.5% and 90.0% and 83.9%
- MESO1 viability (%) ([2]; conc 6.25 uM): 92.1% and 98.3% and 96.6%
- MESO1 viability (%) ([2]; conc 12.5 uM): 90.4% and 90.6% and 90.0%
- MESO1 viability (%) ([2]; conc 25 uM): 77.8% and 73.6% and 73.2%
- MESO1 viability (%) ([2]; conc 50 uM): 53.8% and 51.9% and 42.0%
- PPI-inducing (binding enhancing) activity between FKBP12 and mTOR compared with rapamycin (1), in words (FKBP12 and mTOR; Fluoppi): relatively weaker activities
- EC50 (FKBP12 and mTOR; Fluoppi, HeLa cells, 1 h treatment, three independent biological replicates, read-out: EC50, induction of the formation of FKBP-mTOR complex): 21 nM
- Foci intensity (FKBP12 and mTOR; conc 9.53674e-5 uM): 0.02938 and 0.02062 and 0.01935
- Foci intensity (FKBP12 and mTOR; conc 0.000190735 uM): 0.01089 and 0.04735 and 0.006372
- Foci intensity (FKBP12 and mTOR; conc 0.00038147 uM): 0.02158 and 0.01349 and 0.009009
- Foci intensity (FKBP12 and mTOR; conc 0.000762939 uM): 0.009136 and 0.02959 and 0.01473
- Foci intensity (FKBP12 and mTOR; conc 0.00152588 uM): 0.01663 and 0.006313 and 0.01798
- Foci intensity (FKBP12 and mTOR; conc 0.00305176 uM): 0.01047 and 0.01326 and 0.01713
- Foci intensity (FKBP12 and mTOR; conc 0.00610352 uM): 0.03111 and 0.03528 and 0.05091
- Foci intensity (FKBP12 and mTOR; conc 0.012207 uM): 0.1191 and 0.0902 and 0.07426
- Foci intensity (FKBP12 and mTOR; conc 0.0244141 uM): 0.2308 and 0.2676 and 0.239
- Foci intensity (FKBP12 and mTOR; conc 0.0488281 uM): 0.3046 and 0.3291 and 0.3775
- Foci intensity (FKBP12 and mTOR; conc 0.0976562 uM): 0.4136 and 0.3574 and 0.3612
- Foci intensity (FKBP12 and mTOR; conc 0.195312 uM): 0.3726 and 0.4258 and 0.4147
- Foci intensity (FKBP12 and mTOR; conc 0.390625 uM): 0.4457 and 0.3806 and 0.4256
- Foci intensity (FKBP12 and mTOR; conc 0.78125 uM): 0.3848 and 0.4238 and 0.4902
- Foci intensity (FKBP12 and mTOR; conc 1.5625 uM): 0.4004 and 0.3924 and 0.3797
- Foci intensity (FKBP12 and mTOR; conc 3.125 uM): 0.374 and 0.3995 and 0.4137
- Foci intensity (FKBP12 and mTOR; conc 6.25 uM): 0.4751 and 0.3772 and 0.3106
- Foci intensity (FKBP12 and mTOR; conc 12.5 uM): 0.4864 and 0.3577 and 0.3572
- Foci intensity (FKBP12 and mTOR; conc 25 uM): 0.403 and 0.3428 and 0.3243
- Foci intensity (FKBP12 and mTOR; conc 50 uM): 0.4648 and 0.4194 and 0.3824
- Concentration at which cytotoxic activities were shown ([1]; against the tested cell lines (Jurkat, SKOV-3, MESO-1)): over 10 µM
- Jurkat viability (%) (T lymphoma Jurkat cells; conc 9.53674e-5 uM): 100.6% and 99.4% and 103.1%
- Jurkat viability (%) (T lymphoma Jurkat cells; conc 0.000190735 uM): 101.6% and 102.5% and 98.5%
- Jurkat viability (%) (T lymphoma Jurkat cells; conc 0.00038147 uM): 98.4% and 99.9%
- Jurkat viability (%) (T lymphoma Jurkat cells; conc 0.000762939 uM): 100.1% and 103.3% and 99.4%
- Jurkat viability (%) (T lymphoma Jurkat cells; conc 0.00152588 uM): 103.7% and 95.3% and 102.7%
- Jurkat viability (%) (T lymphoma Jurkat cells; conc 0.00305176 uM): 99.4% and 102.2% and 96.7%
- Jurkat viability (%) (T lymphoma Jurkat cells; conc 0.00610352 uM): 103.1% and 102.2% and 98.6%
- Jurkat viability (%) (T lymphoma Jurkat cells; conc 0.012207 uM): 106.4% and 103.4% and 103.7%
- Jurkat viability (%) (T lymphoma Jurkat cells; conc 0.0244141 uM): 106.5% and 107.7% and 103.0%
- Jurkat viability (%) (T lymphoma Jurkat cells; conc 0.0488281 uM): 101.8% and 99.9% and 103.2%
- Jurkat viability (%) (T lymphoma Jurkat cells; conc 0.0976562 uM): 106.2% and 107.8% and 101.3%
- Jurkat viability (%) (T lymphoma Jurkat cells; conc 0.195312 uM): 97.6% and 99.7% and 92.3%
- Jurkat viability (%) (T lymphoma Jurkat cells; conc 0.390625 uM): 92.6% and 88.6% and 95.1%
- Jurkat viability (%) (T lymphoma Jurkat cells; conc 0.78125 uM): 82.4% and 83.0% and 85.1%
- Jurkat viability (%) (T lymphoma Jurkat cells; conc 1.5625 uM): 79.7% and 82.1% and 77.6%
- Jurkat viability (%) (T lymphoma Jurkat cells; conc 3.125 uM): 74.2% and 71.9% and 69.9%
- Jurkat viability (%) (T lymphoma Jurkat cells; conc 6.25 uM): 76.5% and 74.7% and 74.5%
- Jurkat viability (%) (T lymphoma Jurkat cells; conc 12.5 uM): 63.4% and 64.1% and 59.5%
- Jurkat viability (%) (T lymphoma Jurkat cells; conc 25 uM): 29.8% and 32.1% and 29.9%
- Jurkat viability (%) (T lymphoma Jurkat cells; conc 50 uM): 2.7% and 3.5% and 3.4%
- SKOV3 viability (%) ([3]; conc 9.53674e-5 uM): 102.2% and 102.6% and 104.7%
- SKOV3 viability (%) ([3]; conc 0.000190735 uM): 89.9% and 100.2% and 100.4%
- SKOV3 viability (%) ([3]; conc 0.00038147 uM): 103.4% and 105.0% and 103.9%
- SKOV3 viability (%) ([3]; conc 0.000762939 uM): 100.5% and 98.4% and 99.4%
- SKOV3 viability (%) ([3]; conc 0.00152588 uM): 106.0% and 105.3%
- SKOV3 viability (%) ([3]; conc 0.00305176 uM): 103.5% and 101.1% and 97.3%
- SKOV3 viability (%) ([3]; conc 0.00610352 uM): 103.4% and 105.6% and 104.9%
- SKOV3 viability (%) ([3]; conc 0.012207 uM): 103.7% and 98.9% and 95.6%
- SKOV3 viability (%) ([3]; conc 0.0244141 uM): 104.7% and 103.8% and 99.6%
- SKOV3 viability (%) ([3]; conc 0.0488281 uM): 100.2% and 99.1% and 100.0%
- SKOV3 viability (%) ([3]; conc 0.0976562 uM): 104.8% and 104.3% and 100.1%
- SKOV3 viability (%) ([3]; conc 0.195312 uM): 95.4% and 97.0% and 94.0%
- SKOV3 viability (%) ([3]; conc 0.390625 uM): 97.7% and 103.0% and 102.9%
- SKOV3 viability (%) ([3]; conc 0.78125 uM): 93.0% and 94.9% and 92.8%
- SKOV3 viability (%) ([3]; conc 1.5625 uM): 96.7% and 99.9% and 92.6%
- SKOV3 viability (%) ([3]; conc 3.125 uM): 90.3% and 92.8% and 92.7%
- SKOV3 viability (%) ([3]; conc 6.25 uM): 95.7% and 97.5% and 89.4%
- SKOV3 viability (%) ([3]; conc 12.5 uM): 93.5% and 97.4% and 91.5%
- SKOV3 viability (%) ([3]; conc 25 uM): 91.8% and 89.5% and 94.8%
- SKOV3 viability (%) ([3]; conc 50 uM): 48.8% and 50.2% and 51.9%
